# Results published in US20050043361A1, “MitoNEET polypeptide from mitochondrial membranes, modulators thereof, and methods of using the same” (priority 2002, published 2005).
# “Also recorded” adds a separate entry of the source.
# T1: mitoNEET (Rattus norvegicus, UniProt B0K020)
# T1 construct: newly prepared crude rat liver mitochondria; from tissue; host or cells: rat liver mitochondria (Sprague-Dawley rats)
# T1 sequence (B0K020 1-108): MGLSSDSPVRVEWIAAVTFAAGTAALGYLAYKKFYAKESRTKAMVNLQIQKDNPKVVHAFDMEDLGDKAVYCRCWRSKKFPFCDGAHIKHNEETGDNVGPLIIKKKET
# T2: mitoNEET (Bos taurus, UniProt Q3ZBU2)
# T2 construct: from tissue; host or cells: steer brain, sucrose-density mitochondrial fractions B3/B4
# T2 sequence (Q3ZBU2 2-106 limits assumed): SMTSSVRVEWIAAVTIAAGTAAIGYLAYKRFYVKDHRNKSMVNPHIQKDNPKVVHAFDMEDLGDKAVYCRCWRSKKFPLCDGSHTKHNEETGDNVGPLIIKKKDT
# B1: synthetic mitoNEET: Full-length mitoNEET polypeptide made by peptide synthesis (peptide, UniProt Q9NZ45 1-108, looked up)
# chain: MSLTSSSSVRVEWIAAVTIAAGTAAIGYLAYKRFYVKDHRNKAMINLHIQKDNPKIVHAFDMEDLGDKAVYCRCWRSKKFPFCDGAHTKHNEETGDNVGPLIIKKKET
# modifications: full-length chemically synthesized
# notes: Full-length mitoNEET polypeptide made by peptide synthesis
# Columns and labels:
# mitoNEET [1] = molecular target: T1, mitoNEET; experiment: Photoaffinity crosslinking of 125I-labelled thiazolidinedione probe to rat liver mitochondria, with or without competing thiazolidinedione; format: binding
# Experimental: FIG. 1. A representative 10-20% SDS-PAGE gel (Coomassie stain, left panel) and autoradiogram (right panel). Crosslinking with ^125I-PNU-1010174 was conducted in rat liver mitochondria in the absence (−) or presence of 25 μM (+) of ([6-(2-{4-[(2,4-dioxo-1,3-thiazolidin-5-yl)methyl]phenoxy}ethyl)pyridin-3-yl]acetic acid) (TZD) as described in Example 1. Lanes 1 and 2 are from the rinsed mitochondrial pellet, lanes 3 and 4 represent the same incubations solubilized with 1% Triton X 114, and lanes 5 and 6 are the ammonium sulfate (AS) precipitation of the Triton X 114 soluble material.
# FIG. 2. The ammonium sulfate pellets of Triton X 114—soluble mitoNEET from 14 separate incubations conducted with or without competitor were resuspended in a total volume of 200 μl and subjected to HPLC as described in Example 4. Representative data for the minus competitor condition is shown. […] The ^125I, profile from the in-line gamma detector is shown in the lower right panel. The left hand panels show the silver-stained gel (upper left) and corresponding autoradiogram (lower left) of the relevant fractions. Data are shown for a representative rat liver mitochondrial preparation. The ^125I-crosslinked mitoNEET seen in fraction 31 was not present in the preparations crosslinked in the combined presence of ([6-(2-{4-[(2,4-dioxo-1,3-thiazolidin-5-yl)methyl]phenoxy}ethyl)pyridin-3-yl]acetic acid) (not shown). […]
# mitoNEET [2] = molecular target: T2, mitoNEET; experiment: Photoaffinity crosslinking of 125I-labelled thiazolidinedione probe to bovine brain mitochondrial fractions (B3/B4); format: binding; conditions: stored, frozen bovine brain mitochondrial fractions (B3/B4); UV crosslinking
# Experimental: Bovine brain mitochondria were harvested from bovine brains. This procedure involved dissection of steer brains freshly obtained from a local packinghouse. The rinsed brains were homogenized in fractionation buffer (250 mM sucrose, 50 mM Tris, pH=8.0, containing 1 μg/ml pepstatin A, 5 μg/ml leupeptin, 10 μg/ml bacitracin, and 0.1 mM PMSF). Following removal of nuclei at 5000 rpm in a Beckman Ti50, the mitochondrial pellet was harvested at 20,000×g (12,500 rpm in a Beckman Ti50 rotor) and further enriched by sucrose density centrifugation. Membrane fractions were collected from top of the 1.18 and 1.20 density bands, re-suspended in 50 mM Tris, and collected by centrifugation. The factions (“B3/B4”) were stored at −80° C. until use.
# Crosslinking reactions were carried out in a final volume of 200 μl, containing 100 μl membranes, 50 μl 4% DMSO with or without competing thiazolidinedione (usually 100 μM ([6-(2-{4-[(2,4-dioxo-1,3-thiazolidin-5-yl)methyl]phenoxy}ethyl)pyridin-3-yl]acetic acid), 25 μM final concentration), and 50 μl carrier-free ^125I-4-azido-N-[2-({[6-(2-{4-[(2,4-dioxo-1,3-thiazolidin-5-yl)methyl]phenoxy}ethyl)pyridin-3-yl]acetyl}amino)ethyl]-2-hydroxybenzamide (0.1-0.2 μCi/tube). […]
# fatty acid oxidation = experiment: Oxidation of palmitoyl CoA by solubilized mitochondria with and without synthetic mitoNEET (HPLC); format: biochemical; conditions: excess synthetic mitoNEET; solubilized mitochondrial preparations; CoASH, NAD, FAD, 1 mM palmitoyl CoA
# Experimental: FIG. 10. Oxidation of palmitoyl CoA was measured by solubilized mitochondria with and without the addition of synthetic mitoNEET. Reactions were conducted in the presence of CoASH, NAD, FAD, and 1 mM palmitoyl CoA. Remaining palmitoyl CoA at various time points after incubation is shown in the absence (closed circles) and presence of excess synthetic mitoNEET peptide 11A (closed squares). There was no loss of substrate in the absence of mitochondrial membranes (open triangles). Substrate and generated CoA products were measured by HPLC.
# Full-length mitoNEET synthesized as in Example 6 was extended to contain a N-terminal biotin. […] A number of these proteins have been identified and are know to be involved in fatty acid oxidation. […] Modulation of mitoNEET function would be expected to increase fatty acid oxidation. Such an approach to find useful modulators as described herein may be taken with synthetic peptide or membranes containing endogenous or overexpressed mitoNEET.
molecule,measurement,setting,value
[N-]=[N+]=Nc1cc(O)c(C(=O)NCCNC(=O)Cc2ccc(CCOc3ccc(CC4SC(=O)NC4=O)cc3)nc2)cc1[125I] (stereo not shown),labeling of mitoNEET by crosslinking,"mitoNEET [1]; newly prepared crude rat liver mitochondria, UV crosslinking, carrier-free probe 0.1-0.2 μCi/tube",labeling of the mitoNEET
same,labeling of mitoNEET by crosslinking,mitoNEET [2],labeling of the mitoNEET
"O=C(O)Cc1ccc(CCOc2ccc(CC3SC(=O)NC3=O)cc2)nc1 (stereo not shown) [[6-(2-{4-[(2,4-dioxo-1,3-thiazolidin-5-yl)methyl]phenoxy}ethyl)pyridin-3-yl]acetic acid]",125I-crosslinked mitoNEET peak (HPLC) in presence of competitor,"mitoNEET [1]; competitor 25 μM final concentration, HPLC with in-line gamma detector, fraction 31, identical results with bovine brain fractions",lacked this peak; also recorded: not present
B1,effect on fatty acid oxidation (remaining palmitoyl CoA),fatty acid oxidation,inhibits fatty acid oxidation
